This note sets out measurements from article PMC12687421, “Characterisation of an allosteric site in PLCγ enzymes and implications for development of their specific inhibitors” (Biochemical Journal, 2025).

The subject of one assay is PLCγ2^wt. The assay is described as follows: PLC activity assay 1 (A1), PLCγ2. The assay is classed as biochemical, human. The settings on record: assay using liposomes (A1).
A further assay concerns the target T1, hPLCγ1 (Homo sapiens, UniProt P19174, I813T).
T1 construct: specific activities of PLCγ1^wt and PLCγ2^wt full-length proteins; made in house; host or cells: Escherichia coli T7 Express lysY/Iq
T1 sequence (P19174 1-1291 isoform P19174-2 I813T): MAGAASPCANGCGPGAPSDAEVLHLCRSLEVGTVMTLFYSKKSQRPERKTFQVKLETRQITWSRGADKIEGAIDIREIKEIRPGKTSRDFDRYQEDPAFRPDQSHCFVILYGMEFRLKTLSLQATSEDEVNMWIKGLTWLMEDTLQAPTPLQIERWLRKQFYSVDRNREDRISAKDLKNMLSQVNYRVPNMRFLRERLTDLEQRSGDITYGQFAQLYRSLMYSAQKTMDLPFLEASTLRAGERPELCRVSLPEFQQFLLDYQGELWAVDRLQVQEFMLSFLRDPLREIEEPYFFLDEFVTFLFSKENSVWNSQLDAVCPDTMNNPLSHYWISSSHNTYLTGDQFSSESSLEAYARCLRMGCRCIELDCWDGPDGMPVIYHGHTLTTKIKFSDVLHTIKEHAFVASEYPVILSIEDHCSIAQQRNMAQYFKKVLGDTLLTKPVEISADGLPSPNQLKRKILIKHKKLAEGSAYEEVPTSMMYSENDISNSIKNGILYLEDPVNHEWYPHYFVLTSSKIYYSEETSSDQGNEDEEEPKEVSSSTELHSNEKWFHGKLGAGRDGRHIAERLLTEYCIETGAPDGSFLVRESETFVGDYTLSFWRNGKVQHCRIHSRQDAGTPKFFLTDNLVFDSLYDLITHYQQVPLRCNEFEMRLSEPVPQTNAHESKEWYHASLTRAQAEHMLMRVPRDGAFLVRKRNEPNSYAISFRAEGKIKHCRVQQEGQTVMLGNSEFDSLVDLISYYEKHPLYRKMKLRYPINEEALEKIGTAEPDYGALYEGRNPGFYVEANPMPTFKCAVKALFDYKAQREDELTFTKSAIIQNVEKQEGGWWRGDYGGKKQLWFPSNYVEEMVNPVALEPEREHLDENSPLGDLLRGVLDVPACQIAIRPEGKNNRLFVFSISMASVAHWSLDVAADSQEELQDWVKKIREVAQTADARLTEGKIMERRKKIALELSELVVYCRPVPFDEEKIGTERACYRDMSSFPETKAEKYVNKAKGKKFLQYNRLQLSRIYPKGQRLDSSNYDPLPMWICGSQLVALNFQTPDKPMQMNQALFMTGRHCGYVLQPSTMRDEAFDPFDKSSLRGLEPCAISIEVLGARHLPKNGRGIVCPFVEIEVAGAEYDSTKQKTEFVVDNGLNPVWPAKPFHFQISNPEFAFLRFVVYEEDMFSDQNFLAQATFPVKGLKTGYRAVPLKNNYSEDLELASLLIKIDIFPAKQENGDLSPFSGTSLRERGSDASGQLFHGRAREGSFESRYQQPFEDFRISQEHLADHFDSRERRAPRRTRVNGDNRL
As to the kind of experiment: Hydrogen deuterium exchange mass spectrometry (HDX-MS), apo vs 10 µM ADP. The assay is classed as binding. As to the method:
HDX reactions comparing apo hPLCγ1 to hPLCγ1 incubated with ADP were carried out in a 15 µl reaction volume containing 10 pmol of hPLCγ1 (0.67 µM) and 10 µM of ADP and 1.67% DMSO. The exchange reactions were initiated by the addition of 10.0 µl of D2O buffer (25 mM HEPES pH 7.5, 150 mM NaCl, 2 mM TCEP 92.25% D2O (V/V)) to 5.0 µl of protein (final D2O concentration of 61.5%). Reactions proceeded for 3 s at 0°C, 30 s, 300 s and 3000 s at 20°C before being quenched with ice cold acidic quench buffer, resulting in a final concentration of 0.6M guanidine HCl and 0.9% formic acid post quench. All conditions and time points were created and run in independent triplicate. Samples were flash frozen immediately after quenching and stored at -80°C until injected onto the ultra-performance liquid chromatography (UPLC) system for proteolytic cleavage, peptide separation and injection onto a QTOF for mass analysis, described below.
Protein samples were rapidly thawed and injected onto an integrated fluidics system containing a HDx-3 PAL liquid handling robot and climate-controlled (2°C) chromatography system (Trajan), a Waters Acquity UPLC I-Class Series System, as well as an Impact HD QTOF Mass spectrometer (Bruker). The full details of the automated LC system were previously described. The samples were run over an immobilised pepsin column (Affipro; Enzymate Protein Pepsin Column, 2.1 mm X 20 mm) at 200 µl/min for 3 minutes at 2°C. […]
Peptides were identified from the non-deuterated samples of p110α using data-dependent acquisition following tandem MS/MS experiments (0.5 s precursor scan from 150 to 2000 m/z; twelve 0.25 s fragment scans from 150 to 2000 m/z). MS/MS datasets were analysed using FragPipe v18.0 and peptide identification was carried out by using a false discovery-based approach using a database of purified proteins and known contaminants [[35–37]]. […]
HD-Examiner Software (Trajan) was used to automatically calculate the level of deuterium incorporation into each peptide. […] Deuteration levels were calculated using the centroid of the experimental isotope clusters. […]

Experimental for PLCγ2^wt: The effect of nucleotide inhibition on PLC activity was measured using either a membrane-based assay with the fluorescent substrate (XY-69) incorporated into liposomes or using a small soluble substrate, Aldol 518 myo-inositol-1-phosphate (Aldol). Both methods utilised the same PLC assay buffer [20 mM Hepes-KOH, 70 mM KCl, 3 mM EGTA, 2.97 mM CaCl2, 2 mM TCEP and fatty acid-free bovine serum albumin (FAF-BSA; 50 μg/ml) (pH 7.5)]. Both assays were performed in low volume black 384-well plates (Greiner Bio-One), were composed of a final assay volume of 20 μl and were monitored in a Clariostar plate reader (BMG Labtech). The Aldol assay consisted of 4 μl of a serial dilution of ATP/ADP in assay buffer, 8 μl of PLC protein (concentration varied between PLC variants), and 8 μl of Aldol 518 myo-inositol-1-phosphate (final concentration in assay, 50 μM). […]
The XY-69 assay contained 4 μl of a serial dilution of ATP/ADP in assay buffer, 4 μl of PLC protein (concentration varied between PLC variants), and 12 μl of XY69 liposomes (final concentration in assay 1.2 mg/ml). A CLARIOstar plate reader (BMG Labtech) was used to measure the production of the fluorescent product. […] The initial linear rate of product generation was calculated and converted to a % inhibition when compared with the rate of PLC activity in the absence of nucleotide. […]

Take `Nc1ncnc2c1ncn2[C@@H]1O[C@H](COP(=O)(O)OP(=O)(O)O)[C@@H](O)[C@H]1O` [ADP]: the “IC50 of PLCγ2^wt relative to PLCγ1^wt (fold higher)” value with PLCγ2^wt is listed as 1.5- to 40 fold. Also, at hPLCγ1 (amino acids 24–35 in the nPH domain), the “difference in deuterium exchange (increase in exchange)” value is reported as 4.5–10%. Moreover, the “difference in deuterium exchange (protection)” value on hPLCγ1 (amino acids 330–347, 367–386, 863–882 and 957–973) is on record as 4.5–10%; on hPLCγ1 (amino acids 481–495) it was more than 10%.
